Results reported in patent US20100322882A1, “SOLUBILIZING AGENTS FOR ACTIVE OR FUNCTIONAL ORGANIC COMPOUNDS” (ISP INVESTMENTS INC., priority 2006, published 2010).

What was measured:
[1] = Solubility of solid organic sunscreens in solubilizers (25° C.); format: physicochemical; settings: for Solubility of MBC in the solvent: solute 4-Methylbenzylidene camphor (MBC); for Solubility of E-517 (Avobenzone) in the solvent: solute Avobenzone (E-517); for Solubility of BEMT in the solvent: solute Bis-ethylhexyloxyphenol methoxyphenyl triazine (BEMT); for Solubility of EHT in the solvent: solute Ethylhexyl triazone (EHT); for Solubility of E-567 (Oxybenzone) in the solvent: solute Oxybenzone (E-567)
Experimental: Upon cooling to 25° C., a few seed crystals (<10 mg) of the sunscreen were added to hasten equilibration. The solutions were stored in the dark in a constant temperature chamber at 25° C. Each was sampled weekly, and the ca. 0.1 g sample was filtered through a 0.45μ syringe filter and analyzed by GLC or HPLC, calibrated using standard solutions, until the value for wt. % of solute was constant.

[2] = UV absorption spectra of sunscreens in selected solvents; format: physicochemical; set-up: λmax of E-517 / λmax of E-567 / λmax of BEMT / λmax of EHT: unit not given here; settings: for ε of BEMT at λmax / λmax of BEMT: 10 mg/L BEMT in the solvent; for ε of E-517 at λmax / λmax of E-517: 10 mg/L E-517 in the solvent; for ε of E-567 at λmax / λmax of E-567: 10 mg/L E-567 in the solvent; for ε of EHT at λmax / λmax of EHT: 10 mg/L EHT in the solvent; for ε of MBC at λmax / λmax of MBC: 10 mg/L MBC in the solvent
Experimental: Solutions containing 10 mg/L of sunscreen in selected solvents were prepared, and their UV spectra were measured using a Cary 1E UV-Visible spectrophotometer. […] They are also higher in 2-phenylethyl cyclohexanoate for Escalol® 517 and Escalol® 567.

[3] = second (shorter wavelength) band

Molecule | Solubility of MBC in the solvent [1] | Solubility of E-517 (Avobenzone) in the solvent [1] | Solubility of BEMT in the solvent [1] | Solubility of EHT in the solvent [1] | Solubility of E-567 (Oxybenzone) in the solvent [1] | ε of BEMT at λmax ([2]; first (longer wavelength) band) | λmax of BEMT ([2]; first (longer wavelength) band) | ε of E-517 at λmax ([2]; first (longer wavelength) band) | λmax of E-517 ([2]; first (longer wavelength) band) | ε of E-567 at λmax ([2]; first (longer wavelength) band) | λmax of E-567 ([2]; first (longer wavelength) band) | ε of EHT at λmax [2, 3] | λmax of EHT [2, 3] | ε of MBC at λmax [2, 3] | λmax of MBC [2, 3] | ε of BEMT at λmax [2, 3] | λmax of BEMT [2, 3] | ε of E-567 at λmax [2, 3] | λmax of E-567 [2, 3]
CCCCCCCC(=O)OCCc1ccccc1 [2-phenylethyl octanoate] | 36 wt. % | 19 wt. % | 23 wt. % | 8 wt. % | 27 wt. % |  |  |  |  |  |  |  |  |  |  |  |  |  | 
O=C(OCCc1ccccc1)C1CCCCC1 [2-phenylethyl cyclohexanoate, 2-Phenylethyl Cyclohexanecarboxylate] | 37 wt. % | 20 wt. % | 32 wt. % | 10 wt. % | 32 wt. % | (49,000) | 345 | (34,500) | 359 | (12,100) | 326 | (47,300) | 317 | (10,400) | 317 nm |  |  |  | 
CCC(=O)OCCOc1ccccc1 [2-phenoxyethyl propionate] | 39 wt. % | 21 wt. % | 13 wt. % | 6 wt. % | 38 wt. % |  |  |  |  |  |  |  |  |  |  |  |  |  | 
CCCCC(CC)C(=O)OCCc1ccccc1 (stereo not shown) [2-phenylethyl 2-ethylhexanoate] | 34 wt. % | 17 wt. % | 18 wt. % | 4 wt. % | 25 wt. % |  |  |  |  |  |  |  |  |  |  |  |  |  | 
CC(=O)OCCc1ccccc1 [2-phenylethyl acetate] | 44 wt. % | 26 wt. % | 26 wt. % | 14 wt. % | 44 wt. % |  |  |  |  |  |  |  |  |  |  |  |  |  | 
CCC(=O)OCCc1ccccc1 [2-phenylethyl propionate] | 44 wt. % | 25 wt. % | 33 wt. % | 12 wt. % | 40 wt. % |  |  |  |  |  |  |  |  |  |  |  |  |  | 
CC(C)(C)C(=O)OCCc1ccccc1 [2-phenylethyl neopentanoate] | 38 wt. % | 19 wt. % | 28 wt. % | 5 wt. % | 29 wt. % |  |  |  |  |  |  |  |  |  |  |  |  |  | 
CCC(=O)OC(C)c1ccccc1 (stereo not shown) [1-phenylethyl propionate] | 44 wt. % | 23 wt. % | 26 wt. % | 10 wt. % | 38 wt. % |  |  |  |  |  |  |  |  |  |  |  |  |  | 
CCCCC(=O)OCCc1ccccc1 [2-phenylethyl pentanoate, 2-Phenylethyl Pentanoate] | 41 wt. % | 22 wt. % | 27 wt. % | 10 wt. % | 35 wt. % | (48,000) | 345 | (34,100) | 359 | (9,600) | 327 | (123,000) | 312 | (23,600) | 298 nm | (42,900) | 312 | (14,300) | 287
O=C(OCCc1ccccc1)C1CC1 [2-phenylethyl cyclopropanoate, 2-Phenylethyl Cyclopropanecarboxylate] | 42 wt. % | 24 wt. % | 27 wt. % | 16 wt. % | 39 wt. % |  |  |  |  |  |  |  |  |  |  |  |  |  | 
CCCCCCCCOC(=O)OCCCCCCCC [dioctyl carbonate, reference compound] | 29 wt. % | 13 wt. % | 10 wt. % | 7 wt. % | 16 wt. % |  |  |  |  |  |  |  |  |  |  |  |  |  | 

The next lines start with the values.

Solubility of MBC in the solvent [1] | Solubility of E-517 (Avobenzone) in the solvent [1] | Solubility of BEMT in the solvent [1] | Solubility of EHT in the solvent [1] | Solubility of E-567 (Oxybenzone) in the solvent [1] | ε of BEMT at λmax ([2]; first (longer wavelength) band) | λmax of BEMT ([2]; first (longer wavelength) band) | ε of E-517 at λmax ([2]; first (longer wavelength) band) | λmax of E-517 ([2]; first (longer wavelength) band) | ε of E-567 at λmax ([2]; first (longer wavelength) band) | λmax of E-567 ([2]; first (longer wavelength) band) | ε of EHT at λmax [2, 3] | λmax of EHT [2, 3] | ε of MBC at λmax [2, 3] | λmax of MBC [2, 3] | ε of BEMT at λmax [2, 3] | λmax of BEMT [2, 3] | ε of E-567 at λmax [2, 3] | λmax of E-567 [2, 3] | Molecule
26 wt. % | 8 wt. % | 5 wt. % | 3 wt. % | 11 wt. % |  |  |  |  |  |  |  |  |  |  |  |  |  |  | CC(C)CCCCCCCOC(=O)C(C)(C)C [isodecyl neopentanoate, reference compound]
 | 24 wt. % | 32 wt. % | 10 wt. % | 39 wt. % |  |  |  |  |  |  |  |  |  |  |  |  |  |  | CCCC(=O)OCc1ccccc1 [benzyl butyrate]
35 wt. % | 17 wt. % | 18 wt. % | 6 wt. % | 27 wt. % |  |  |  |  |  |  |  |  |  |  |  |  |  |  | CCCCCCCCOC(=O)OCc1ccccc1 [benzyl octyl carbonate]
30 wt. % | 11 wt. % | 2 wt. % | 8 wt. % | 30 wt. % |  |  |  |  |  |  |  |  |  |  |  |  |  |  | CC(O)C(=O)OCc1ccccc1 (stereo not shown) [benzyl lactate]
 |  |  |  |  | (43,800) | 347 | (33,400) | 358 | (9,260) | 328 | (117,000) | 313 | (22,000) | 301 nm | (40,800) | 313 | (9,310) | 298 | C12-15 alkyl benzoate [reference compound]
